Measured values: patent US20120295907A1, “INSECTICIDAL COMPOUNDS” (SYNGENTA CROP PROTECTION, LLC, priority 2009, published 2012)

Experiments:
Type in all cases: in vivo
[1] = tested on: Plutella xylostella; assay: Plutella xylostella (Diamond Back Moth) artificial diet MTP test; conditions: 144 h, 200 ppm (concentration in well 18 ppm), L2 larvae, 6 days, larval mortality, growth regulation
[2] = tested on: Spodoptera littoralis; assay: Spodoptera littoralis (Egyptian Cotton Leafworm) cotton leaf disc spray test; conditions: foliar, 72 h, 200 ppm spray on cotton leaf discs, L1 larvae, mortality, feeding behavior, growth regulation 3 DAT
[3] = tested on: Tetranychus urticae; assay: Tetranychus urticae (Two-Spotted Spider Mite) bean leaf disc spray test; conditions: foliar, 192 h, 200 ppm spray on bean leaf discs, mite populations of mixed ages, 8 days, egg, larval and adult mortality, read-out: control of Tetranychus urticae
[4] = tested on: Diabrotica balteata; assay: Diabrotica balteata (Corn Root Worm) artificial diet MTP test; conditions: 120 h, 200 ppm (concentration in well 18 ppm), L2 larvae, 5 days, larval mortality, growth regulation
[5] = tested on: Thrips tabaci; assay: Thrips tabaci (Onion Thrips) sunflower leaf disc spray test; conditions: foliar, 168 h, 200 ppm spray on sunflower leaf discs, population of mixed ages, 7 days, mortality
[6] = tested on: Heliothis virescens; assay: Heliothis virescens (Tobacco Budworm) egg test on artificial diet; conditions: 96 h, 200 ppm (concentration in well 18 ppm), eggs 0-24 h old on artificial diet, 4 days, egg mortality, larval mortality, growth regulation

Measured: pest or weed control at 200 ppm

CCc1cc(C(F)(C(F)(F)F)C(F)(F)C(F)(F)F)cc(C)c1NC(=O)c1cccc(NC(=O)c2ccc(C#N)cc2C)c1OC (stereo not drawn) [A5, N-[2-ethyl-4-(1,2,2,3,3,3-hexafluoro-1-trifluoromethylpropyl)-6-methyl-phenyl]-3-(4-cyano-2-methylbenzoylamino)-2-methoxybenzamide]
not listed: [6]
≥ 80%: all other assays above

CCc1cc(C(F)(C(F)(F)F)C(F)(F)C(F)(F)F)cc(C)c1NC(=O)c1cccc(NC(=O)c2cccnc2Cl)c1OC (stereo not drawn) [A6]
≥ 80%: all assays above

CCc1cc(C(F)(C(F)(F)F)C(F)(F)C(F)(F)F)cc(C)c1NC(=O)c1cccc(NC(=O)c2cccnc2F)c1OC (stereo not drawn) [A7]
≥ 80%: all assays above

CCc1cc(C(F)(C(F)(F)F)C(F)(F)C(F)(F)F)cc(C)c1NC(=O)c1cccc(NC(=O)c2cc(Cl)ccc2Cl)c1OC (stereo not drawn) [A16]
≥ 80%: all assays above

COc1c(NC(=O)c2ccc(F)cc2C)cccc1C(=O)Nc1c(Cl)cc(C(F)(C(F)(F)F)C(F)(F)C(F)(F)F)cc1Br (stereo not drawn) [B9]
≥ 80%: all assays above

COc1c(NC(=O)c2snnc2C)cccc1C(=O)Nc1c(Cl)cc(C(F)(C(F)(F)F)C(F)(F)C(F)(F)F)cc1Br (stereo not drawn) [B21]
≥ 80%: all assays above

COc1c(NC(=O)c2ccc(Cl)cc2[N+](=O)[O-])cccc1C(=O)Nc1c(Cl)cc(C(F)(C(F)(F)F)C(F)(F)C(F)(F)F)cc1Br (stereo not drawn) [B64]
≥ 80%: all assays above

COc1c(NC(=O)c2ccc(Cl)s2)cccc1C(=O)Nc1c(Cl)cc(C(F)(C(F)(F)F)C(F)(F)C(F)(F)F)cc1Br (stereo not drawn) [B67]
≥ 80%: all assays above

COc1c(NC(=O)c2cc(F)c(F)cc2Cl)cccc1C(=O)Nc1c(Cl)cc(C(F)(C(F)(F)F)C(F)(F)C(F)(F)F)cc1Br (stereo not drawn) [B73]
≥ 80%: all assays above

COc1c(NC(=O)c2cc(C)ccc2[N+](=O)[O-])cccc1C(=O)Nc1c(Cl)cc(C(F)(C(F)(F)F)C(F)(F)C(F)(F)F)cc1Br (stereo not drawn) [B74]
≥ 80%: all assays above

COc1c(NC(=O)c2cccnc2C(F)(F)F)cccc1C(=O)Nc1c(Cl)cc(C(F)(C(F)(F)F)C(F)(F)C(F)(F)F)cc1Br (stereo not drawn) [B81]
≥ 80%: all assays above

COc1c(NC(=O)c2cc(Cl)nc(Cl)c2)cccc1C(=O)Nc1c(Cl)cc(C(F)(C(F)(F)F)C(F)(F)C(F)(F)F)cc1Br (stereo not drawn) [B97]
≥ 80%: all assays above

COc1c(NC(=O)c2c(Cl)cccc2[N+](=O)[O-])cccc1C(=O)Nc1c(Cl)cc(C(F)(C(F)(F)F)C(F)(F)C(F)(F)F)cc1Br (stereo not drawn) [B101]
≥ 80%: all assays above

COc1c(NC(=O)c2ccc(Cl)c(OC)c2Cl)cccc1C(=O)Nc1c(Cl)cc(C(F)(C(F)(F)F)C(F)(F)C(F)(F)F)cc1Br (stereo not drawn) [B109]
≥ 80%: all assays above

COc1c(NC(=O)c2cccc(CC#N)c2)cccc1C(=O)Nc1c(Cl)cc(C(F)(C(F)(F)F)C(F)(F)C(F)(F)F)cc1Br (stereo not drawn) [B110]
≥ 80%: all assays above

COc1c(NC(=O)c2cc(C(F)(F)F)nn2C)cccc1C(=O)Nc1c(Cl)cc(C(F)(C(F)(F)F)C(F)(F)C(F)(F)F)cc1Br (stereo not drawn) [B113]
≥ 80%: all assays above

COc1c(NC(=O)c2cc(F)ccc2Cl)cccc1C(=O)Nc1c(Cl)cc(C(F)(C(F)(F)F)C(F)(F)C(F)(F)F)cc1Br (stereo not drawn) [B154]
not listed: [6]
≥ 80%: all other assays above

COc1c(NC(=O)c2c(F)cc(C#N)cc2F)cccc1C(=O)Nc1c(Cl)cc(C(F)(C(F)(F)F)C(F)(F)C(F)(F)F)cc1Br (stereo not drawn) [B176]
not listed: [4]
≥ 80%: all other assays above

COc1c(NC(=O)c2ccc([N+](=O)[O-])c(C)c2)cccc1C(=O)Nc1c(Cl)cc(C(F)(C(F)(F)F)C(F)(F)C(F)(F)F)cc1Br (stereo not drawn) [B190]
not listed: [4]
≥ 80%: all other assays above

COc1c(NC(=O)c2ccc([N+](=O)[O-])cc2F)cccc1C(=O)Nc1c(Cl)cc(C(F)(C(F)(F)F)C(F)(F)C(F)(F)F)cc1Br (stereo not drawn) [B191]
not listed: [4]
≥ 80%: all other assays above

COc1c(NC(=O)c2ccc(C(F)(F)F)cc2)cccc1C(=O)Nc1c(Cl)cc(C(F)(C(F)(F)F)C(F)(F)C(F)(F)F)cc1Cl (stereo not drawn) [C15]
not listed: [4]
≥ 80%: all other assays above
